From patent EP1916248A1, “Furanone derivatives as cysteine protease inhibitors” (MEDIVIR AB, priority 2006, dated 2008)

Legend:
[1] = Permeability, transport through Caco-2 cell monolayers; conditions: human
[2] = target: T1, cathepsin K (Homo sapiens, UniProt P43235); assay: Determination of cathepsin K proteolytic catalytic activity (Ki, fluorogenic peptide substrate); assay type: biochemical; conditions: human recombinant enzyme
T1 construct: made in house; host or cells: not fixed: E coli, Pichia or Baculovirus systems named as options
T1 sequence (P43235 115-329): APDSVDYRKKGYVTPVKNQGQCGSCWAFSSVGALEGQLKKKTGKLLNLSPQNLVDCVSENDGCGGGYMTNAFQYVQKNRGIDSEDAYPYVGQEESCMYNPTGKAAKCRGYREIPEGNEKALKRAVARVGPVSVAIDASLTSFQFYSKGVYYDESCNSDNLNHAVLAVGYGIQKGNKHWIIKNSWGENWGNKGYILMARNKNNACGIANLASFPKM
Protocol: Convenient assays for cathepsin K are carried out using human recombinant enzyme, such as that described in PDB.
The recombinant cathepsin K can be expressed in a variety of commercially available expression systems including E coli, Pichia and Baculovirus systems. The purified enzyme is activated by removal of the prosequence by conventional methods.
The enzyme concentration used was 5 nM. The stock substrate solution was prepared at 10 mM in DMSO. […] The total DMSO concentration in the assay was kept below 3%. All assays were conducted at ambient temperature. Product fluorescence (excitation at 390 nm, emission at 460 nm) was monitored with a Labsystems Fluoroskan Ascent fluorescent plate reader.
Potential inhibitors are screened using the above assay with variable concentrations of test compound. Reactions were initiated by addition of enzyme to buffered solutions of substrate and inhibitor.

[3] = target: human cathepsin L (Homo sapiens, UniProt P07711); assay: Cathepsin L Ki determination (fluorescent substrate H-D-Val-Leu-Lys-AMC); assay type: biochemical; conditions: pH5.5
Sequence of human cathepsin L (P07711 114-333): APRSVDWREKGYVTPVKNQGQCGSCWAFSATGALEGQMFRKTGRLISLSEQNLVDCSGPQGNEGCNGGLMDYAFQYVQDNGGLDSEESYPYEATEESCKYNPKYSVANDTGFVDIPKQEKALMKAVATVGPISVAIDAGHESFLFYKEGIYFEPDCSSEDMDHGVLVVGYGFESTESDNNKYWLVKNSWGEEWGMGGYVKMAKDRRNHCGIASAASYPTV
Protocol: The procedure above with the following amendments is used for the determination of Ki for cathepsin L.
The enzyme is commercially available human cathepsin L (for example Calbiochem). The substrate is H-D-Val-Leu-Lys-AMC available from Bachem. The assay buffer is 100 mM sodium acetate 1 mM EDTA, pH5.5) The DMSO stock (10 mM in 100%DMSO) is diluted to 10% in assay buffer. Enzyme is prepared at 5 nM concentration in assay buffer plus 1 mM dithiothreitol just before use. 2 ul of 10 mM inhibitor made up in 100% DMSO is dispensed into row A. 10 ul of 50 uM substrate (=1/200 dilution of 10 mM stock in DMSO, diluted in assay buffer)
Potential inhibitors are screened using the above assay with variable concentrations of test compound. Reactions were initiated by addition of enzyme to buffered solutions of substrate and inhibitor. Ki values were calculated according to equation 1 v0 = (VS)/(KM (1 + (I)/(Ki)) + S) [formula] where v0 is the velocity of the reaction, V is the maximal velocity, S is the concentration of substrate with Michaelis constant of KM, and / is the concentration of inhibitor.
Representative compounds of the invention were assayed for cathepsin K potency and selectivity in the assays above. Note that the cathepsin L and S data is in micromolar, whereas the compounds are so potent against cathepsin K that the results are presented in nanomolar.

[4] = target: T2, human cathepsin S (Homo sapiens, UniProt P25774); assay: Cathepsin S Ki determination (fluorescent substrate boc-Val-Leu-Lys-AMC); assay type: biochemical; conditions: baculovirus-expressed human cathepsin S, pH 6.5
T2 construct: made in house
T2 sequence (P25774 115-331): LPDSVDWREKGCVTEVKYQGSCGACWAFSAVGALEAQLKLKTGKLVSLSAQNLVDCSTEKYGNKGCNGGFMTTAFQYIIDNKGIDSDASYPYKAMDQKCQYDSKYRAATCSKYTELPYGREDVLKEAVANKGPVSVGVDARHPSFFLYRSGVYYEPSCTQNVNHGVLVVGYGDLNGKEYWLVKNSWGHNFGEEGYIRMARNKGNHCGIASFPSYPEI
Protocol: The assay uses baculovirus-expressed human cathepsin S and the boc-Val-Leu-Lys-AMC fluorescent substrate available from Bachem in a 384 well plate format, in which 7 test compounds can be tested in parallel with a positive control comprising a known cathepsin S inhibitor comparator.
280 ul/well of 12.5% DMSO are added to rows B - H of two columns of a 96 deep well polypropylene plate. 70 ul/well of substrate is added to row A. 2 x 250 ul/well of assay buffer (100 mM Na phosphate, 100 mM NaCl, pH 6.5) is added to row A, mixed, and double diluted down the plate to row H.
100 ul/well of assay buffer is added to columns 2-5 and 7-12 of 4 rows of a 96 well V bottom polypropylene plate. 200 ul/well of assay buffer is added to columns 1 and 6.
2 ul of each 10 mM test compound is added to a separate well on row A, columns 1-10. Add 90 ul assay buffer containing 1 mM DTT and 2 nM cathepsin S to each well of rows B-H and 180 ul to row A. Mix row A using a multichannel pipette and double dilute to row G. Mix row H and read in the fluorescent spectrophotometer.
The second test compound is added to column 6 of the top row, the third to column 1 of the second row etc. Add 1 ul of comparator to column 6 of the bottom row. […]
Using the a distributor such as a Multidrop 384, add 30 ul/well to all wells of the assay plate and read in fluorescent spectrophotometer such as an Ascent. […]

[5] = reference compounds (markers) of the permeability assay; cited from earlier work

| SMILES | Papp at 120 min, 10 uM [1] | Ki [3] | Ki [4] | % absorption in man [5] | other results |
| --- | --- | --- | --- | --- | --- |
| CCC1OCC(=O)C1NC(=O)C(CC(C)C)NC(=O)c1ccc(-c2csc(N3CCN(C)CC3)n2)cc1 (stereo not shown) [Example 3, N-[1-(2-Ethyl-4-oxo-tetrahydro-furan-3-ylcarbamoyl)-3-methyl-butyl]-4-[2-(4-methylpiperazin-1-yl)-thiazol-4-yl]-benzamide] | 46 ×10⁻⁶ cm/s | 500 nM | 1800 nM | – | Ki [2]: 1 nM |
| CN(Cc1cnc2nc(N)nc(N)c2n1)c1ccc(C(=O)N[C@@H](CCC(=O)O)C(=O)O)cc1 [Methotrexate] | – | – | – | 20% | – |
| OC[C@@H](O)[C@@H](O)[C@H](O)[C@H](O)CO [Mannitol] | – | – | – | 16% | – |
| CC(C)C[C@H](NC(=O)c1ccc(N2CCN(C)CC2)cc1)C(=O)N[C@H]1C(=O)CO[C@@H]1C [Prior art, reference compound] | – | – | – | – | Papp at 10 µM [1]: 1 ×10⁻⁶ cm/s |
| CCC1OCC(=O)C1NC(=O)C1(NC(=O)c2ccc(-c3csc(N4CCN(C)CC4)n3)cc2)CCCCC1 (stereo not shown) [Example 2, N-[1-(2-Ethyl-4-oxo-tetrahydro-furan-3-ylcarbamoyl)-cyclohexyl]-4-[2-(4-methylpiperazin-1-yl)-thiazol-4-yl]-benzamide] | 36 ×10⁻⁶ cm/s | 120000 nM | 770000 nM | – | – |
